According to patent publication US10208065B2, “Crystalline free bases of C-Met inhibitor or crystalline acid salts thereof, and preparation methods and uses thereof” (Jiangsu Hansoh Pharmaceutical Group Co., Ltd., priority 2014, dated 2019):
In brackets after ≈: the same amount, converted by molar mass. Where a name gives a salt, the structure may show the parent alone.

Key:
[1] = Bioavailability in dog after single administration by gavage; format: in vivo; conditions: 5 mg/kg
Procedure: It could be seen from FIG. 21 that the bioavailability of crystal form III of the mesylate salt was increased by 5 times in comparison to form I of the free base. Experimental conditions: the experimental animal was a dog, a dose of 5 mg/kg, single administration by gavage. Therefore, the salt-form compound has a significant improvement in comparison to the free base.

[2] = Accelerated stability test (HPLC purity, crystal form); format: physicochemical; conditions: for Purity ratio: purity after test / initial purity
Procedure: The accelerated stability test of crystal form III of the mesylate salt was used for researching the physical and chemical stability of crystal form III of the mesylate salt. Specific procedure: After the sample was placed in an accelerated stability for a sufficient time under the conditions shown in the table below, the sample was taken out and dissolved in the mobile phase, and then its purity was determined by HPLC. Before the start of the accelerated stability test, the purity of the initial sample was determined by HPLC. The ratio of the purity of the sample after the accelerated stability test to the purity of the initial sample was used as a stability criterion. If the ratio was less than 95% purity, the sample was considered as unstable.

[3] = Solubility in simulated biological media (37° C., HPLC); format: physicochemical; conditions: for Solubility compared with the solubility of the free base: simulated biological media
Procedure: (§1) Procedure: About 10 mg of amorphous free base was weighed and placed in a 2 mL glass vial. Then, 1 mL of simulated biological media (simulated artificial gastric juice, simulated artificial intestinal juice-fasting, and simulated artificial intestinal juice-satiety), and a magnetic stirrer were added, and then the vial was sealed. The mixture was magnetically stirred at 37° C. and about 0.4 mL of the sample was taken at different time points. The mixture was filtered with a centrifuge tube (pore size of filter membrane: 0.45 μm), the filtrate was taken and the content of the compound of formula I therein was analyzed by HPLC.
as §1, with “crystal form I of” for “amorphous”, “vial,” for “vial. Then,”, “was” for “were”, “added,” for “added, and”
as §1, with “crystal form of the” for “amorphous”, “and” for “and then”
as §1, with “crystal form I of a phosphate salt” for “amorphous free base”, “(simulated is” for “(simulated”
as §1, with “crystal form III of the mesylate salt” for “amorphous free base”
as §1, with “crystal form III of the 1,5-naphthalenedisulfonate salt” for “amorphous free base”

[4] = 40° C./75% relative humidity, 1 week
[5] = simulated artificial gastric juice
[6] = simulated artificial intestinal juice-fasting
[7] = simulated artificial intestinal juice-satiety

| Structure (SMILES) | Increase of bioavailability in comparison to form I of the free base [1] [times] | Crystal transformation after the accelerated stability test [2, 4] | Purity after the accelerated stability test ([2]; 40° C./75% relative humidity, 1 week, initial purity 98.2%) [%] | Purity ratio [2, 4] [%] | Physical and chemical stability ([2]; 80° C. 1 day and 40° C./75% relative humidity 1 week) | Crystal transformation after the accelerated stability test ([2]; 80° C., 1 day) | Purity after the accelerated stability test ([2]; 80° C., 1 day, initial purity 99.9%) [%] | Purity ratio ([2]; 80° C., 1 day) [%] | Solubility (1 hour) [3, 5] [µg/mL] | Solubility (4 hours) [3, 5] [µg/mL] | Solubility (22 hours) [3, 5] [µg/mL] | Solubility (1 hour) [3, 6] [µg/mL] | Solubility (4 hours) [3, 6] [µg/mL] | Solubility (22 hours) [3, 6] [µg/mL] | Solubility (1 hour) [3, 7] [µg/mL] | Solubility (4 hours) [3, 7] [µg/mL] | Solubility (22 hours) [3, 7] [µg/mL] | Solubility compared with the solubility of the free base [3] |
| --- | --- | --- | --- | --- | --- | --- | --- | --- | --- | --- | --- | --- | --- | --- | --- | --- | --- | --- |
| CN1C(=O)COc2c1cnc1ccc(Sc3nnc4c(F)cc(-c5cnn(C)c5)cn34)cc21 [Crystal form III of mesylate, 9-((8-fluoro-6-(1-methyl-1H-pyrazol-4-yl)-[1,2,4]triazolo[4,3-a]pyridin-3-yl)thio)-4-methyl-2H-[1,4]oxazino[3,2-c]quinolin-3(4H)-one] | 5 | No | 98.8 | 100.6 | good physical and chemical stability | No | 99.7 | 99.8 | 211 | 200 | 12.5 | 5 | 5 | 5 | 20 | 14 | 10 | much greater |
| CN1C(=O)COc2c1cnc1ccc(Sc3nnc4c(F)cc(-c5cnn(C)c5)cn34)cc21 [Crystal form I of phosphate, 9-((8-fluoro-6-(1-methyl-1H-pyrazol-4-yl)-[1,2,4]triazolo[4,3-a]pyridin-3-yl)thio)-4-methyl-2H-[1,4]oxazino[3,2-c]quinolin-3(4H)-one] |  |  |  |  |  |  |  |  | 128 | 135 | 135 | 8 | 4 | 3 | 32 | 33 | 27 | much greater |
| CN1C(=O)COc2c1cnc1ccc(Sc3nnc4c(F)cc(-c5cnn(C)c5)cn34)cc21 [Crystal form III of the 1,5-naphthalenedisulfonate salt] [9-((8-fluoro-6-(1-methyl-1H-pyrazol-4-yl)-[1,2,4]triazolo[4,3-a]pyridin-3-yl)thio)-4-methyl-2H-[1,4]oxazino[3,2-c]quinolin-3(4H)-one] |  |  |  |  |  |  |  |  | 182 | 27 | 30 | 12 | 10 | 5 | 48 | 33 | 13 | much greater |
| CN1C(=O)COc2c1cnc1ccc(Sc3nnc4c(F)cc(-c5cnn(C)c5)cn34)cc21 [Crystal form III of free base, 9-((8-fluoro-6-(1-methyl-1H-pyrazol-4-yl)-[1,2,4]triazolo[4,3-a]pyridin-3-yl)thio)-4-methyl-2H-[1,4]oxazino[3,2-c]quinolin-3(4H)-one] |  |  |  |  |  |  |  |  | 40 (≈ 86.7 µM) | 43 (≈ 93.2 µM) | 43 (≈ 93.2 µM) | 4 (≈ 8.67 µM) | 4 (≈ 8.67 µM) | 4 (≈ 8.67 µM) | 11 (≈ 23.8 µM) | 11 (≈ 23.8 µM) | 10 (≈ 21.7 µM) |  |
| CN1C(=O)COc2c1cnc1ccc(Sc3nnc4c(F)cc(-c5cnn(C)c5)cn34)cc21 [Amorphous free base, 9-((8-fluoro-6-(1-methyl-1H-pyrazol-4-yl)-[1,2,4]triazolo[4,3-a]pyridin-3-yl)thio)-4-methyl-2H-[1,4]oxazino[3,2-c]quinolin-3(4H)-one] |  |  |  |  |  |  |  |  | 11 (≈ 23.8 µM) | 9 (≈ 19.5 µM) | 9 (≈ 19.5 µM) | 2 (≈ 4.33 µM) | 2 (≈ 4.33 µM) | 2 (≈ 4.33 µM) | 3 (≈ 6.5 µM) | 2 (≈ 4.33 µM) | 2 (≈ 4.33 µM) |  |
| CN1C(=O)COc2c1cnc1ccc(Sc3nnc4c(F)cc(-c5cnn(C)c5)cn34)cc21 [Crystal form I of free base, 9-((8-fluoro-6-(1-methyl-1H-pyrazol-4-yl)-[1,2,4]triazolo[4,3-a]pyridin-3-yl)thio)-4-methyl-2H-[1,4]oxazino[3,2-c]quinolin-3(4H)-one] |  |  |  |  |  |  |  |  | 18 (≈ 39 µM) | 19 (≈ 41.2 µM) | 19 (≈ 41.2 µM) | 1 (≈ 2.17 µM) | 1 (≈ 2.17 µM) | 2 (≈ 4.33 µM) | 4 (≈ 8.67 µM) | 4 (≈ 8.67 µM) | 4 (≈ 8.67 µM) |  |
